Results as given in patent publication US8148349B2, “Nucleoside cyclic phosphoramidates for the treatment of RNA-dependent RNA viral infection” (Istituto di Ricerche di Biologia Molecolare P. Angeletti …, priority 2006, dated 2012).
pEC50: −log10 of the molar value.

Tested on: subgenomic HCV Replicon in HuH-7 cells
Assay: Assay for Inhibition of HCV RNA Replication (Replicon assay)
Format: cell-based, Hepatitis C Virus
Details: Hepatitis C virus, Huh-7, read-out: Replicon Assay EC50
Procedure: A. Assay for Inhibition of HCV RNA Replication:
The compounds of the present invention are evaluated for their ability to affect the replication of Hepatitis C Virus RNA in cultured hepatoma (HuH-7) cells containing a subgenomic HCV Replicon. The details of the assay are described below. This Replicon assay is a modification of that described in V. Lohmann, F. Korner, J-O. Koch, U. Herian, L. Theilmann, and R. Bartenschlager, “Replication of a Sub-genomic Hepatitis C Virus RNAs in a Hepatoma Cell Line,” Science 285:110 (1999).
The assay is an in situ Ribonuclease protection, Scintillation Proximity based-plate assay (SPA). 10,000-40,000 cells are plated in 100-200 μL of media containing 0.8 mg/mL G418 in 96-well cytostar plates (Amersham). Compounds are added to cells at various concentrations up to 100 μM in 1% DMSO at time 0 to 18 h and then cultured for 24-96 h. Cells are fixed (20 min, 10% formalin), permeabilized (20 min, 0.25% Triton X-100/PBS) and hybridized (overnight, 50° C.) with a single-stranded ^33P RNA probe complementary to the (+) strand NS5B (or other genes) contained in the RNA viral genome. Cells are washed, treated with RNAse, washed, heated to 65° C. and counted in a Top-Count. Inhibition of replication is read as a decrease in counts per minute (cpm).
Human HuH-7 hepatoma cells, which are selected to contain a subgenomic replicon, carry a cytoplasmic RNA consisting of an HCV 5′ non-translated region (NTR), a neomycin selectable marker, an EMCV IRES (internal ribosome entry site), and HCV non-structural proteins NS3 through NS5B, followed by the 3′ NTR.

Going from `CCCCOC(=O)[C@H](C)NP1(=O)OC[C@H]2O[C@@H](n3ccc(N)nc3=O)[C@](C)(O)[C@@H]2O1` (single isomer, unassigned) [Example 1] to `CCOC(=O)[C@H](C)NP1(=O)OC[C@H]2O[C@@H](n3ccc(N)nc3=O)[C@](C)(O)[C@@H]2O1` (single isomer, unassigned) [Example 2], the pEC50 rises from 4.82 to 5.40 (0.58 log units). The second is the more potent here.

Compared with `C[C@H](NP1(=O)OC[C@H]2O[C@@H](n3ccc(N)nc3=O)[C@](C)(O)[C@@H]2O1)C(=O)OC(C)(C)C` (stereo partly drawn) [Example 4, tert-butyl N-[(4aR,6R,7R,7aR)-6-(4-amino-2-oxopyrimidin-1(2H)-yl)-7-hydroxy-7-methyl-2-oxidotetrahydro-4H-furo[3,2d][1,3,2]dioxaphosphinin-2-yl]-L-alaninate], `CCOC(=O)[C@H](C)NP1(=O)OC[C@H]2O[C@@H](n3ccc(N)nc3=O)[C@](C)(O)[C@@H]2O1` (stereo partly drawn) [Example 10, ethyl N-[(4aR,6R,7R,7aR)-6-(4-amino-2-oxopyrimidin-1(2H)-yl)-7-hydroxy-7-methyl-2oxidotetrahydro-4H-furo[3,2-d][1,3,2]-dioxaphosphinin-2-yl]-L-alaninate] is higher in pEC50: under 4.70 for the first, 5.40 for the second. The second is the more potent here.

Going from `CCCCOC(=O)[C@H](C)NP1(=O)OC[C@H]2O[C@@H](n3ccc(N)nc3=O)[C@](C)(O)[C@@H]2O1` (stereo partly drawn) [Example 5, n-butyl N-[(4aR,6R,7R,7aR)-6-(4-amino-2-oxopyrimidin-1(2H)-yl)-7-hydroxy-7-methyl-2-oxidotetrahydro-4H-furo[3,2d][1,3,2]dioxaphosphinin-2-yl]-L-alaninate] to `CCOC(=O)[C@H](CC)NP1(=O)OC[C@H]2O[C@@H](n3ccc(N)nc3=O)[C@](C)(O)[C@@H]2O1` (stereo partly drawn) [Example 6, ethyl (2S)-2-{[(4aR,6R,7R,7aR)-6-(4-amino-2-oxopyrimidin-1(2H)-yl)-7-hydroxy-7-methyl-2-oxidotetrahydro-4H-furo[3,2d][1,3,2]dioxaphosphinin-2-yl]amino}butanoate], the pEC50 rises from 4.82 to 5.22 (0.40 log units). The second is the more potent here.

With `CCC[C@H](NP1(=O)OC[C@H]2O[C@@H](n3ccc(N)nc3=O)[C@](C)(O)[C@@H]2O1)C(=O)OCC` (stereo partly drawn) [Example 8, ethyl N-[(4aR,6R,7R,7aR)-6-(4-amino-2-oxopyrimidin-1(2H)-yl)-7-hydroxy-7-methyl-2-oxidotetrahydro-4H-furo[3,2-d][1,3,2]dioxaphosphinin-2-yl]-L-norvalinate] the pEC50 was under 4.70.

Same assay, conditions: Hepatitis C virus; HuH-7 cells containing a subgenomic HCV Replicon; read-out: Replicon Assay EC50

Going from `CCCCCCCOC(=O)[C@H](C)NP1(=O)OC[C@H]2O[C@@H](n3ccc(N)nc3=O)[C@](C)(O)[C@@H]2O1` (single isomer, unassigned) [Example 3] to `CCCCCCOCCOC(=O)[C@H](C)NP1(=O)OC[C@H]2O[C@@H](n3ccc(N)nc3=O)[C@](C)(O)[C@@H]2O1` (stereo partly drawn) [Example 17, 2-(hexyloxy)ethyl N-[(4aR,6R,7R,7aR)-6-(4-amino-2-oxopyrimidin-1(2H)-yl)-7-hydroxy-7-methyl-2-oxidotetrahydro-4H-furo[3,2-d][1,3,2]dioxaphosphinin-2-yl]-L-alaninate], the pEC50 falls from 5.30 to 4.82 (0.48 log units). The first is the more potent here.

`CCOC(=O)[C@H](CC(C)C)NP1(=O)OC[C@H]2O[C@@H](n3ccc(N)nc3=O)[C@](C)(O)[C@@H]2O1` (stereo partly drawn) [Example 7, ethyl N-[(4aR,6R,7R,7aR)-6-(4-amino-2-oxopyrimidin-1(2H)-yl)-7-hydroxy-7-methyl-2-oxidotetrahydro-4H-furo[3,2-d][1,3,2]dioxaphosphinin-2-yl]-L-leucinate] and `CC(C)CCOC(=O)[C@H](C)NP1(=O)OC[C@H]2O[C@@H](n3ccc(N)nc3=O)[C@](C)(O)[C@@H]2O1` (stereo partly drawn) [Example 13, isopentyl N-[(4aR,6R,7R,7aR)-6-(4-amino-2-oxopyrimidin-1(2H)-yl)-7-hydroxy-7-methyl-2-oxidotetrahydro-4H-furo[3,2d][1,3,2]-dioxaphosphinin-2-yl]-L-alaninate] cannot be ordered by pEC50: 4.30 for the first, under 4.70 for the second.

`C[C@H](NP1(=O)OC[C@H]2O[C@@H](n3ccc(N)nc3=O)[C@](C)(O)[C@@H]2O1)C(=O)OC1CCCC1` (stereo partly drawn) [Example 9, cyclopentyl N-[(4aR,6R,7R,7aR)-6-(4-amino-2-oxopyrimidin-1(2H)-yl)-7-hydroxy-7-methyl-2-oxidotetrahydro-4H-furo[3,2d][1,3,2]-dioxaphosphinin-2-yl]-L-alaninate] and `C[C@H](NP1(=O)OC[C@H]2O[C@@H](n3ccc(N)nc3=O)[C@](C)(O)[C@@H]2O1)C(=O)OC1CCCCC1` (stereo partly drawn) [Example 12, cyclohexyl N-[(4aR,6R,7R,7aR)-6-(4-amino-2-oxopyrimidin-1(2H)-yl)-7-hydroxy-7-methyl-2oxidotetrahydro-4Hfuro[3,2d][1,3,2]dioxaphosphinin-2-yl]-L-alaninate] cannot be ordered by pEC50: under 4.70 for the first, under 4.70 for the second.

`CCCCCCCOC(=O)[C@H](C)NP1(=O)OC[C@H]2O[C@@H](n3ccc(N)nc3=O)[C@](C)(O)[C@@H]2O1` (stereo partly drawn) [Example 11, n-heptyl N-[(4aR,6R,7R,7aR)-6-(4-amino-2-oxopyrimidin-1(2H)-yl)-7-hydroxy-7-methyl-2oxidotetrahydro-4Hfuro[3,2d][1,3,2]-dioxaphosphinin-2-yl]-L-alaninate] and `CCCC(CCC)COC(=O)[C@H](C)NP1(=O)OC[C@H]2O[C@@H](n3ccc(N)nc3=O)[C@](C)(O)[C@@H]2O1` (stereo partly drawn) [Example 16, 2-propylpentyl N-[(4aR,6R,7R,7aR)-6-(4-amino-2-oxopyrimidin-1(2H)-yl)-7-hydroxy-7-methyl-2-oxidotetrahydro-4H-furo[3,2-d][1,3,2]dioxaphosphinin-2-yl]-L-alaninate] are within 0.2 log units of each other in pEC50: 5.00 for the first, 4.85 for the second.

First: CCC(CC)COC(=O)[C@H](C)NP1(=O)OC[C@H]2O[C@@H](n3ccc(N)nc3=O)[C@](C)(O)[C@@H]2O1 (stereo partly drawn) [Example 15, 2-ethylbutyl N-[(4aR,6R,7R,7aR)-6-(4-amino-2-oxopyrimidin-1(2H)-yl)-7-hydroxy-7-methyl-2-oxidotetrahydro-4H-furo[3,2-d][1,3,2]dioxaphosphinin-2-yl]-L-alaninate]
Second: C[C@H](NP1(=O)OC[C@H]2O[C@@H](n3ccc(N)nc3=O)[C@](C)(O)[C@@H]2O1)C(=O)OCCCC1CCCCC1 (stereo partly drawn) [Example 19, 3-cyclohexylpropyl N-[(4aR,6R,7R,7aR)-6-(4-amino-2-oxopyrimidin-1(2H)-yl)-7-hydroxy-7-methyl-2-oxidotetrahydro-4H-furo[3,2-d][1,3,2]dioxaphosphinin-2-yl]-L-alaninate]
The pEC50 of the first is lower: under 4.70 for the first, 5.00 for the second.

`C[C@H](NP1(=O)OC[C@H]2O[C@@H](n3ccc(N)nc3=O)[C@](C)(O)[C@@H]2O1)C(=O)OC1CCCCCC1` (stereo partly drawn) [Example 18, cycloheptyl N-[(4aR,6R,7R,7aR)-6-(4-amino-2-oxopyrimidin-1(2H)-yl)-7-hydroxy-7-methyl-2-oxidotetrahydro-4H-furo[3,2-d][1,3,2]dioxaphosphinin-2-yl]-L-alaninate] and `CCCC(CCC)C(=O)Nc1ccn([C@@H]2O[C@@H]3COP(=O)(N[C@@H](C)C(=O)OCC)O[C@H]3[C@@]2(C)O)c(=O)n1` (stereo partly drawn) [Example 21, ethyl N-{(4aR,6R,7R,7aR)-7-hydroxy-7-methyl-2-oxido-6-[2-oxo-4-[(2-propylpentanoyl)amino]pyrimidin-1(2H)-yl]tetrahydro-4H-furo[3,2-d][1,3,2]dioxaphosphinin-2-yl}-L-alaninate] cannot be ordered by pEC50: under 5.00 for the first, under 4.70 for the second.

`CCCC(CCC)C(=O)Nc1ccn([C@@H]2O[C@@H]3COP(=O)(N[C@@H](CC)C(=O)OCC)O[C@H]3[C@@]2(C)O)c(=O)n1` (stereo partly drawn) [Example 20, Ethyl (2S)-2-({(4aR,6R,7R,7aR)-7-hydroxy-7-methyl-2-oxido-6-[2-oxo-4-[(2-propylpentanoyl)amino]pyrimidin-1(2H)-yl]tetrahydro-4H-furo[3,2-d][1,3,2]dioxaphosphinin-2-yl}amino)butanoate] and `CCCCCCCOC(=O)[C@H](C)NP1(=O)OC[C@H]2O[C@@H](n3ccc(NC(=O)OCCCN(C)C)nc3=O)[C@](C)(O)[C@@H]2O1` (stereo partly drawn) [Example 23, n-heptyl N-{(4aR,6R,7R,7aR)-6-[4-({[3-(dimethylamino)propoxy]carbonyl}amino)-2-oxopyrimidin-1(2H)-yl]-7-hydroxy-7-methyl-2-oxidotetrahydro-4H-furo[3,2-d][1,3,2]dioxaphosphinin-2-yl}-L-alaninate] cannot be ordered by pEC50: under 4.70 for the first, under 4.70 for the second.

Same assay, conditions: HuH-7 cells containing a subgenomic HCV Replicon; read-out: Replicon Assay EC50

Compared with `COCCCOC(=O)[C@H](C)NP1(=O)OC[C@H]2O[C@@H](n3ccc(N)nc3=O)[C@](C)(O)[C@@H]2O1` (stereo partly drawn) [Example 14, 3-methoxypropyl N[(4aR,6R,7R,7aR)-6-(4-amino-2-oxopyrimidin-1(2H)-yl)-7-hydroxy-7-methyl-2-oxidotetrahydro-4H-furo[3,2-d][1,3,2]dioxaphosphinin-2-yl]-L-alaninate], “n-heptyl N-{(4aR,6R,7R,7aR)-7-hydroxy-7-methyl-6-[4-[(1-methylene-2-propylpentyl)amino]-2-oxopyrimidin-1(2H)-yl]-2-oxidotetrahydro-4H-furo[3,2-d][1,3,2]dioxaphosphinin-2-yl}-L-alaninate [Example 22]” is 0.37 log units higher in pEC50: 4.55 for the first, 4.92 for the second.
